Each block holds one compound with its values, some of them ahead of it.
How the values were obtained:
Assay type in all cases: cell-based
Bcl-xl = Bcl-xl expression (qRT-PCR mRNA, Western blot protein); details: HCT116 cells, 5 at 5 μM; for Bcl-xl transcription: 4 at 1 μM
Description: (§1) Cytosolic and nuclear extracts were prepared using a Nuclear/Cytosol Fractionation Kit (BioVision Research, USA). Cytosolic extracts (for NF-κBp65, NF-κBp50, COX-2, iNOS, STAT3, c-Myc, Bcl-xl, Nrf2, SOD, GSTP, EGFR, Akt, p-Akt, Keap1, IKKα/β and β-actin) or nuclear extracts (for NF-κBp65, NF-κBp50, STAT3, p-STAT3, Nrf2, p-Nrf2 and lamin) were separated on 7.5%, 10% or 12% SDS–PAGE slab gels. Then, the proteins were transferred to a nitrocellulose Immobilon-P membrane. After blocking for 2 h with 10% skimmed milk, proteins were incubated with primary antibodies against NF-κBp65, NF-κBp50, COX-2, iNOS, STAT3, p-STAT3, c-Myc, Bcl-xl, Nrf2, p-Nrf2, SOD, GSTP, EGFR, Akt, p-Akt, Keap1, IKKα/β, β-actin, and lamin. Alkaline phosphatase (AP)-labeled anti-rabbit IgG, anti-goat IgG, and anti-mouse IgG secondary antibodies (Bio-Rad Laboratories, USA), as well as horseradish peroxidase (HRP)-conjugated anti-mouse IgG (Boster Bio, USA) secondary antibodies were used in the staining reaction. Bands were visualized by the AP Conjugate Substrate Kit NBT/BCIP or the chemiluminescent HRP substrate of the Clarity ECL Kit (Bio–Rad Laboratories, USA). The amount of immunoreactive product in each lane was determined using a ChemiDoc Imaging System (Bio–Rad Laboratories, USA). Values were calculated as relative absorbance units (RQ) per mg of protein and expressed as a percentage of the control.
(§2) Total RNA from cells was isolated with the GeneMatrix Universal DNA/RNA/Protein Purification Kit (EurX, Poland). For the qRT-PCR analyses, the Maxima SYBR Green I/ROX qPCR Master Mix (2×) (Thermo Fisher Scientific, USA) and the thermal cycler LightCycler (Roche, Germany) were used. The protocol started with 5 min of enzyme activation at 95 °C, followed by 40–50 cycles at 95 °C for 15 s, 56 °C for 20 s, 72 °C for 40 s, and final elongation at 72 °C for 5 min. Melting curve analysis was used for amplicon verification. The expression levels of TATA-box-binding protein (TBP) and porphobilinogen deaminase (PBGD) were used to normalize the data. The Pfaffl comparative method was used to calculate fold change. Primers were designed using Beacon Designer software (the sequences of primers used to analyze genes are listed in Table 2 of the supplementary materials).

HCT116 cells [1] = test: Apoptosis, Annexin V / 7-AAD flow cytometry, HCT116; details: 48 h; for induction of apoptosis: increase of early, late and total apoptosis
Description: (§3) Apoptosis was assessed by the detection of phosphatidylserine externalization based on Annexin V staining combined with fluorescent DNA intercalator 7-Aminoactinomycin D (7-AAD) what allowed for the discrimination between early and late apoptotic cells. The analysis was performed by flow cytometry using the Muse Annexin V & Dead Cell Kit (Luminex, USA) and the Muse Cell Analyzer (Merck, Germany), according to the manufacturer’s protocol. Cells were seeded (2 × 10^5 cells per well) in six-well plates and on the following day the analyzed compounds were added. Topotecan (Sigma-Aldrich, USA) was used as a positive control of apoptosis induction. After 48 h cells were collected by trypsinization, stained and after 20 min incubation at room temperature in the dark analyzed by flow cytometry. Three independent experiments were performed. Data were analyzed by Muse 1.5 Analysis Software (Merck, Germany).

EGFR = test: Western blot, EGFR protein in cytosolic fraction; details: 4 at 1 μM
Description: as §1

STAT3 [2] = test: Transcription factor ELISA, STAT3 binding to DNA; details: 2, 5 at 5 μM, 4 at 1 μM; for binding of STAT3 to DNA: HCT116 cells; for decrease in the binding of STAT3 to DNA: nuclear fraction of DLD-1 cells
Description: (§4) To estimate NF-ΚB (p50 and p65 subunits) STAT3 and Nrf2 activation, enzymatic immunoassays with the Transcription Factor ELISA Kit (TransAM™NF-κB, TransAM™STAT3/TransAM™Nrf2, Active Motif, Carlsbad CA, USA) were used following the manufacturer’s protocol. Briefly, proper consensus-site double-strand oligonucleotides (NF-κB—5′-GGGACTTTCC-3′; STAT3-5’—TTCCCGGAA-3’; Nrf2-5ʹ—[…]-3ʹ) were immobilized on an ELISA plate and incubated for one hour with the nuclear extracts. The activated subunits bound to DNA were recognized with a specific primary antibody and detected with an HRP-conjugated secondary antibody. The number of subunits was determined by spectrophotometry at λ = 450 nm. The number of p50, and p65 subunits, STAT3, as well as the amount of Nrf2 contained in the DNA-binding complex, corresponded to the activated NF-κB, STAT3, or Nrf2 transcription factors.

DLD-1 cells [3] = test: MTT viability assay, DLD-1 cells; details: Homo sapiens, range 0.5–100 µM, read-out: IC50, cytotoxicity
Description: (§5) The DLD-1 and HCT116 colorectal carcinoma cell lines were purchased from ECACC. The HaCaT cell line of spontaneously immortalized keratinocytes was purchased from Cell Lines Service (Germany). The cells were cultured in Dulbecco’s Modified Eagle’s Medium (DMEM, Sigma-Aldrich, USA) with the addition of 10% FBS (EURx, Poland) and 1% antibiotic solution (penicillin and streptomycin) (Sigma-Aldrich, USA) at 37 °C in an atmosphere with 95% humidity and 5% CO2.
(§6) The effect of the tested compounds on the viability of DLD-1, HCT116 and HaCaT cells was assessed by the MTT assay according to the standard protocol.

HCT116 cells [4] = test: MTT viability assay, HCT116 cells; details: Homo sapiens, HCT-116, range 0.5–100 µM, read-out: IC50, cytotoxicity
Description: as §5, §6

Nrf2 = test: Transcription factor ELISA, Nrf2 binding to DNA
Description: as §4

[5] = MTT viability assay, normal HaCaT cells; details: HaCaT cells (spontaneously immortalized keratinocytes), normal human HaCaT cells, read-out: IC50, cytotoxicity
Description: as §5, §6

p-Akt = test: Western blot, p-Akt (Ser 473) protein in cytosolic fraction; details: 2, 5 at 5 μM, 4 at 1 μM
Description: as §1

STAT3 [6] = test: qRT-PCR, STAT3 mRNA; details: DLD-1 cells; 2, 5 at 5 μM, 4 at 1 μM
Description: as §2

DLD-1 cells [7] = test: Apoptosis, Annexin V / 7-AAD flow cytometry, DLD-1; details: 48 h; for induction of apoptosis: mainly early and total apoptotic populations enriched
Description: as §3

SOD = SOD expression (qRT-PCR mRNA, Western blot protein); details: HCT116 cells; 5 μM
Description: as §1
as §2, with “Primers were designed using Beacon Designer software (the sequences of primers used to analyze genes are listed in Table 2 of the supplementary materials).” left out

[8] = doubled concentration: 4 at 2 μM, 5 at 10 μM
[9] = HCT116 cells, 4 at 1 μM, 2, 5, 6, 7 at 5 μM

binding of STAT3 to DNA (STAT3 [2]): decreased the binding of STAT3 to DNA | Nrf2 binding to a specific nucleotide sequence (ELISA) (Nrf2; [9]): statistically significant increase
SMILES: COc1cc(C(=O)/C=C/c2cccc(SC)c2)cc(Br)c1OC [chalcone 4]
Bcl-xl transcription (Bcl-xl): decreased Bcl-xl transcription | late and total apoptosis compared with BAY 11-7082 (5 µM) (HCT116 cells [1]; [8]): higher percentage of late and total apoptosis than BAY 11-7082 | induction of apoptosis (HCT116 cells [1]): able to induce apoptosis | level of EGFR (EGFR; DLD-1 cells, 2, 5 at 5 μM): significantly decreased the level of EGFR | level of EGFR (EGFR; HCT116 cells): significantly decreased the level of EGFR | decrease in the binding of STAT3 to DNA (STAT3 [2]): 30% | IC50 (DLD-1 cells [3]): 2 µM | IC50 (HCT116 cells [4]): 20 µM | IC50 [5]: 3 µM | phosphorylation of p-Akt (Ser 473) (p-Akt; DLD-1 cells): significantly reduced phosphorylation of p-Akt | phosphorylation of p-Akt (Ser 473) (p-Akt; HCT116 cells): significantly reduced phosphorylation of p-Akt | STAT3 gene expression (mRNA) (STAT3 [6]): decreased | induction of apoptosis (DLD-1 cells [7]): able to induce apoptosis

binding of STAT3 to DNA (STAT3 [2]): decreased the binding of STAT3 to DNA | Nrf2 binding to a specific nucleotide sequence (ELISA) (Nrf2; DLD-1 cells, 1 at 1 μM, 3, 5, 7, 8 at 5 μM): statistically significant increase | Nrf2 binding to a specific nucleotide sequence (ELISA) (Nrf2; [9]): statistically significant increase
SMILES: COc1cc(/C=C/C(=O)c2cc(Br)c(SC)c(OC)c2)ccc1SC [chalcone 5]
levels of SOD mRNA and protein (SOD): increased levels of SOD mRNA and protein | Bcl-xl transcription (Bcl-xl): decreased Bcl-xl transcription | Bcl-xl protein level (Bcl-xl): correlated with Bcl-xl protein level | late and total apoptosis compared with BAY 11-7082 (5 µM) (HCT116 cells [1]; [8]): higher percentage of late and total apoptosis than BAY 11-7082 | induction of apoptosis (HCT116 cells [1]): able to induce apoptosis | late and total apoptosis compared with BAY 11-7082 (5 µM) (HCT116 cells [1]; standard concentration: 5 at 5 μM): higher percentage of late and total apoptosis than BAY 11-7082 | level of EGFR (EGFR; DLD-1 cells, 2, 5 at 5 μM): significantly decreased the level of EGFR | decrease in the binding of STAT3 to DNA (STAT3 [2]): 20% | IC50 (DLD-1 cells [3]): 11 µM | IC50 (HCT116 cells [4]): 13 µM | IC50 [5]: 14 µM | phosphorylation of p-Akt (Ser 473) (p-Akt; DLD-1 cells): significantly reduced phosphorylation of p-Akt | phosphorylation of p-Akt (Ser 473) (p-Akt; HCT116 cells): significantly reduced phosphorylation of p-Akt | STAT3 gene expression (mRNA) (STAT3 [6]): decreased | total apoptotic cells compared with BAY 11-7082 (5 µM) (DLD-1 cells [7]; 5 in higher concentration): comparable effect | induction of apoptosis (DLD-1 cells [7]): able to induce apoptosis

From paper PMC9436958, “The synthesis of novel thioderivative chalcones and their influence on NF-κB, STAT3 and NRF2 signaling pathways in colorectal cancer cells” (Scientific Reports, 2022)
